Measured values as given in patent US20130046003A1, “PHARMACEUTICAL COMPOSITIONS COMPRISING 4-BROMO-N-(IMIDAZOLIDIN-2-YLIDENE)-1H-BENZIMIDAZOL-5-AMINE FOR TREATING RETINAL DISEASES” (priority 2011, published 2013).

Legend:
[1] = normal DB rabbits, intravenous route, 10-30 minutes post-dose
Description: Rabbits were dosed with 4-bromo-N-(imidazolidin-2-ylidene)-1H-benzimidazol-5-amine through intravenous route. Spatial sweep visual evoked potential (sVEP) acuity was assessed with PowerDiva software version 1.8. Recordings were made bilaterally in conscious animals.

[2] = rats, after an oral dose of brimonidine tartrate; cited from earlier work
[3] = test system: alpha 2-adrenergic receptor; settings: known from prior art; all three alpha-2 receptor subtypes; cited from earlier work
[4] = test system: retina damage caused by blue light; settings: rats, 1 mg/kg IP one hour before 4 hours blue light exposure (6100-6500 lux); OCT at 7 days post exposure; versus saline
Description: Drugs were administered via intraperitoneal injection (IP) at a dose of 1 mg/kg one hour before blue light exposure.
Twenty 4-month old male Sprague-Dawley rats (body weight 470-550 g) were used in this study. The animals were exposed to room light on a 12 hour lighV12 hour dark cycle before the experiment. All animals were dark adapted overnight (16-20 hours) before blue light exposure. Under the intensity of 6100-6500 lux, rats were exposed to blue light for 4 hours. After the blue light, rats were placed in the dark for another 3 days before returning to normal 12 hour light/12 hour dark. Ocular Coherence Tomography (OCT) measurement was performed at 7 days post blue light exposure.

Row | SMILES | visual acuity (sVEP acuity) [1] | amount found in urine [2] | alpha 2-adrenergic receptor agonist activity [3] | protection of the retina from damage caused by blue light (retinal thickness measured by OCT) [4]
1 | Brc1c(N=C2NCCN2)ccc2[nH]cnc12 [4-bromo-N-(imidazolidin-2-ylidene)-1H-benzimidazol-5-amine] | enhanced visual acuity | trace amounts | potent alpha 2-adrenergic receptor pan agonist, activating all three alpha-2 receptor subtypes | 
2 | Brc1c(N=C2NCCN2)ccc2nccnc12 [brimonidine, (5-bromo-quinoxalin-6-yl)-imidazolidin-2-ylidene-amine, reference compound] |  |  |  | significantly reduced and protected the retina from the damage caused by blue light
